“And” between values parts separate entries of the source, which are not always exact repeats. Equal entries are not always repeated. Inconclusive results and toxic doses are left out.
System: P388 leukemia ip, CD2F1 mice, survival T/C
Experiment: NCI In Vivo Anticancer Drug Screen. Data for tumor model P388 Leukemia (intraperitoneal) in CD2F1 (CDF1) mice
Conditions: endpoint: median survival time, higher = longer survival
Summary of the method: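 Mice carrying the transplanted tumor received test compound or vehicle. Survival was recorded in each group, and the value is the treated-group measurement divided by that of the vehicle-treated control group.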

[1] = dose: 50.0 mg/kg/injection, schedule: Q01DX005 (ip), vehicle: Klucel (hydroxypropylcellulose) (HPC)
[2] = dose: 100.0 mg/kg/injection, schedule: Q01DX005 (ip), vehicle: Klucel (hydroxypropylcellulose) (HPC)
[3] = dose: 200.0 mg/kg/injection, schedule: Q01DX005 (ip), vehicle: Klucel (hydroxypropylcellulose) (HPC)
[4] = dose: 25.0 mg/kg/injection, schedule: Q01DX009 (ip), vehicle: saline
[5] = dose: 50.0 mg/kg/injection, schedule: Q01DX009 (ip), vehicle: saline
[6] = dose: 25.0 mg/kg/injection, schedule: Q01DX005 (ip), vehicle: Klucel (hydroxypropylcellulose) (HPC)
[7] = dose: 60.0 mg/kg/injection, schedule: Q01DX005 (ip), vehicle: saline with Tween-80
[8] = dose: 120.0 mg/kg/injection, schedule: Q01DX005 (ip), vehicle: saline with Tween-80

COc1cc2ccccc2c2cc([N+](=O)[O-])oc12
T/C [1]: 110 % of control
T/C [2]: 101 % of control
T/C [3]: 110 % of control

NC(Cc1ccccc1)P(=O)(O)O (configuration not stated)
T/C (dose: 25.0 mg/kg/injection, schedule: Q01DX009 (ip), vehicle: suspension in saline): 97 % of control
T/C (dose: 50.0 mg/kg/injection, schedule: Q01DX009 (ip), vehicle: suspension in saline): 99 % of control
T/C (dose: 100.0 mg/kg/injection, schedule: Q01DX009 (ip), vehicle: suspension in saline): 99 % of control
T/C (dose: 200.0 mg/kg/injection, schedule: Q01DX009 (ip), vehicle: suspension in saline): 97 % of control

O=S1(=O)OCCCO1
T/C (dose: 12.5 mg/kg/injection, schedule: Q01DX005 (ip), vehicle: saline): 109 % of control
T/C (dose: 25.0 mg/kg/injection, schedule: Q01DX005 (ip), vehicle: saline): 98 % of control
T/C (dose: 50.0 mg/kg/injection, schedule: Q01DX005 (ip), vehicle: saline): 124 % of control

CN(C)CCC(CCc1ccccc1)OC(=O)c1ccccc1 (configuration not stated)
T/C [4]: 102 % of control
T/C [5]: 101 % of control
T/C (dose: 100.0 mg/kg/injection, schedule: Q01DX009 (ip), vehicle: saline): 102 % of control

COC(=O)C(Cc1cc(OC)c(OC)c(OC)c1I)C(=O)OC
T/C (dose: 100.0 mg/kg/injection, schedule: Q01DX001 (ip), vehicle: saline with Tween-80): 102 % of control
T/C (dose: 200.0 mg/kg/injection, schedule: Q01DX001 (ip), vehicle: saline with Tween-80): 100 % of control
T/C (dose: 400.0 mg/kg/injection, schedule: Q01DX001 (ip), vehicle: saline with Tween-80): 103 % of control

COc1cc(O)c2c(c1)C(=O)c1cc3c(c(O)c1C2=O)C(O)C(OC)C(C)(O)C3=O (configuration not stated)
T/C (dose: 6.25 mg/kg/injection, schedule: Q01DX009 (ip), vehicle: Klucel (hydroxypropylcellulose) (HPC)): 95 % of control
T/C (dose: 12.5 mg/kg/injection, schedule: Q01DX009 (ip), vehicle: Klucel (hydroxypropylcellulose) (HPC)): 105 % of control
T/C (dose: 25.0 mg/kg/injection, schedule: Q01DX009 (ip), vehicle: Klucel (hydroxypropylcellulose) (HPC)): 98 % of control
T/C (dose: 50.0 mg/kg/injection, schedule: Q01DX009 (ip), vehicle: Klucel (hydroxypropylcellulose) (HPC)): 94 % of control
T/C (dose: 100.0 mg/kg/injection, schedule: Q01DX009 (ip), vehicle: Klucel (hydroxypropylcellulose) (HPC)): 95 % of control

COc1c2occc2c(NC(=O)C(Cl)Cl)c2ccc(=O)oc12
T/C (dose: 2.5 mg/kg/injection, schedule: Q04DX002 (ip), vehicle: saline with Tween-80): 101 % of control
T/C (dose: 5.0 mg/kg/injection, schedule: Q04DX002 (ip), vehicle: saline with Tween-80): 100 % of control
T/C (dose: 10.0 mg/kg/injection, schedule: Q04DX002 (ip), vehicle: saline with Tween-80): 99 % of control

CP1(=S)CC(Br)=C2CCCCC21 (configuration not stated)
T/C (dose: 100.0 mg/kg/injection, schedule: Q04DX003 (ip), vehicle: Klucel (hydroxypropylcellulose) (HPC)): 108 % of control
T/C (dose: 200.0 mg/kg/injection, schedule: Q04DX003 (ip), vehicle: Klucel (hydroxypropylcellulose) (HPC)): 106 % of control
T/C (dose: 400.0 mg/kg/injection, schedule: Q04DX003 (ip), vehicle: Klucel (hydroxypropylcellulose) (HPC)): 107 % of control

O=C(N/C=C/c1ccco1)NC1CCCCCCCCCCC1
T/C (dose: 12.5 mg/kg/injection, schedule: Q01DX005 (ip), vehicle: Klucel (hydroxypropylcellulose) (HPC)): 95 % of control
T/C [6]: 92 % of control
T/C [1]: 89 % of control

OC1C2CCC1C(N1CCOCC1)CC2 (configuration not stated)
T/C (dose: 50.0 mg/kg/injection, schedule: Q01DX009 (ip), vehicle: saline sonified): 100 % of control
T/C (dose: 100.0 mg/kg/injection, schedule: Q01DX009 (ip), vehicle: saline sonified): 100 % of control
T/C (dose: 200.0 mg/kg/injection, schedule: Q01DX009 (ip), vehicle: saline sonified): 105 % of control

CC(C)N1COCO[C@H]2CCC[C@@H]21
T/C [6]: 113 % of control
T/C (dose: 100.0 mg/kg/injection, schedule: Q01DX001 (ip), vehicle: Klucel (hydroxypropylcellulose) (HPC)): 93 % of control
T/C [2]: 113 % of control
T/C (dose: 200.0 mg/kg/injection, schedule: Q01DX001 (ip), vehicle: Klucel (hydroxypropylcellulose) (HPC)): 90 % of control

Cc1nc(Nc2ccccc2)c2c(-c3ccccc3)c[nH]c2n1
T/C [1]: 89 % of control
T/C [2]: 90 % of control
T/C [3]: 100 % of control

Cc1c(O)/c(=C\O)c2nc3c(=O)ccc(C(=O)NCCN(C)C)c3[nH]c2c1=O
T/C (dose: 6.25 mg/kg/injection, schedule: Q01DX005 (ip), vehicle: other): 117 % of control
T/C (dose: 7.5 mg/kg/injection, schedule: Q03HX015 (ip), vehicle: water): 160 % of control
T/C (dose: 12.5 mg/kg/injection, schedule: Q01DX005 (ip), vehicle: other): 120 % of control
T/C (dose: 15.0 mg/kg/injection, schedule: Q03HX015 (ip), vehicle: water): 177 % of control
T/C (dose: 50.0 mg/kg/injection, schedule: Q01DX005 (ip), vehicle: other): 123 % of control

CC(N)(CCS(=O)CP(=O)(O)O)C(=O)O (configuration not stated)
T/C (dose: 60.0 mg/kg/injection, schedule: Q01DX005 (ip), vehicle: saline): 100 % of control
T/C (dose: 120.0 mg/kg/injection, schedule: Q01DX005 (ip), vehicle: saline): 94 % of control

C=C(C)CCP(=S)(OCC)OCC
T/C [7]: 102 % of control
T/C [8]: 101 % of control
T/C (dose: 240.0 mg/kg/injection, schedule: Q01DX005 (ip), vehicle: saline with Tween-80): 100 % of control

COc1cc(-c2oc3c(OC)cc(OC)c(O)c3c(=O)c2OC)cc(OC)c1OC
T/C (dose: 100.0 mg/kg/injection, schedule: Q04DX002 (ip), vehicle: saline with Tween-80): 96 % of control
T/C (dose: 200.0 mg/kg/injection, schedule: Q04DX002 (ip), vehicle: saline with Tween-80): 105 % of control
T/C (dose: 400.0 mg/kg/injection, schedule: Q04DX002 (ip), vehicle: saline with Tween-80): 96 % of control

C1=C(C2CCCC3[C@@H]4C[C@@H](CN23)C2CCCCN2C4)CCC2[C@H]3C[C@H](CN12)C1CCCCN1C3 (some centres not stated)
T/C (dose: 3.75 mg/kg/injection, schedule: Q01DX005 (ip), vehicle: Klucel (hydroxypropylcellulose) (HPC)): 106 % of control
T/C (dose: 7.5 mg/kg/injection, schedule: Q01DX005 (ip), vehicle: Klucel (hydroxypropylcellulose) (HPC)): 104 % of control
T/C (dose: 15.0 mg/kg/injection, schedule: Q01DX005 (ip), vehicle: Klucel (hydroxypropylcellulose) (HPC)): 110 % of control and 96 % of control
T/C (dose: 30.0 mg/kg/injection, schedule: Q01DX005 (ip), vehicle: Klucel (hydroxypropylcellulose) (HPC)): 100 % of control

N#CC1=C(Nc2ccccc2Cl)SC2(CCCC2)NC1=O
T/C (dose: 60.0 mg/kg/injection, schedule: Q01DX005 (ip), vehicle: Klucel (hydroxypropylcellulose) (HPC)): 100 % of control
T/C (dose: 120.0 mg/kg/injection, schedule: Q01DX005 (ip), vehicle: Klucel (hydroxypropylcellulose) (HPC)): 100 % of control
T/C (dose: 240.0 mg/kg/injection, schedule: Q01DX005 (ip), vehicle: Klucel (hydroxypropylcellulose) (HPC)): 92 % of control

Cn1c(=O)ccc2c1nc1ccccc1[n+]2[O-]
T/C [7]: 101 % of control
T/C [8]: 102 % of control

Cc1nc(N)c2ncn(C3OC(CO)C(O)C3O)c2n1 (configuration not stated)
T/C (dose: 6.25 mg/kg/injection, schedule: Q01DX009 (ip), vehicle: saline): 100 % of control
T/C (dose: 12.5 mg/kg/injection, schedule: Q01DX009 (ip), vehicle: saline): 106 % of control
T/C [4]: 109 % of control
T/C [5]: 112 % of control

C=C(Cl)CN(CCCC(=O)O)c1ccccc1
T/C (dose: 100.0 mg/kg/injection, schedule: Q04DX003 (ip), vehicle: other): 100 % of control
T/C (dose: 200.0 mg/kg/injection, schedule: Q04DX003 (ip), vehicle: other): 109 % of control
T/C (dose: 400.0 mg/kg/injection, schedule: Q04DX003 (ip), vehicle: other): 90 % of control

COC1CCC(COS(=O)(=O)c2ccc(C)cc2)O1 (configuration not stated)
T/C (dose: 50.0 mg/kg/injection, schedule: Q01DX009 (ip), vehicle: saline with Tween-80): 105 % of control
T/C (dose: 100.0 mg/kg/injection, schedule: Q01DX009 (ip), vehicle: saline with Tween-80): 100 % of control
T/C (dose: 200.0 mg/kg/injection, schedule: Q01DX009 (ip), vehicle: saline with Tween-80): 103 % of control

CCCCCCCC(=O)O[C@H]1[C@H]2[C@@H](CC1(C)C)C(=O)[C@]13O[C@H]1C(=O)[C@]1(CO1)[C@]23C
T/C (dose: 2.2 mg/kg/injection, schedule: Q01DX009 (ip), vehicle: saline with Tween-80): 118 % of control
T/C (dose: 5.0 mg/kg/injection, schedule: Q01DX009 (ip), vehicle: saline with Tween-80): 104 % of control and 122 % of control
T/C (dose: 7.5 mg/kg/injection, schedule: Q01DX009 (ip), vehicle: saline with Tween-80): 118 % of control
T/C (dose: 10.0 mg/kg/injection, schedule: Q01DX009 (ip), vehicle: saline with Tween-80): 95 % of control
T/C (dose: 10.0 mg/kg/injection, schedule: Q01DX009 (ip), vehicle: saline): 105 % of control

— PubChem BioAssay AID330 (DTP/NCI, 2004)
